# Laboratory results: patent US9241976B2, “Use of HDL-related molecules to treat and prevent proinflammatory conditions” (THE REGENTS OF THE UNIVERSITY OF CALIFORNIA, priority 2011, dated 2016)
# Key:
# [1] = tested on: CD31; assay: CD31 immunohistochemistry of lung surface tumors; type: in vivo, mouse; settings: 100 mg/kg/d in chow diet for 3 weeks, vs control mice
# Procedure: Tumor tissues from the lung surface were fixed and embedded with paraffin, sectioned at […] thickness. Sections were deparaffinized with xylene, rehydrated with 100%, 90%, 70%, and 50% ethanol, treated with proteinase K at […] for 30 minutes, and treated with 3% H2O2 for 30 minutes at room temperature to inhibit endogenous peroxidase, blocked with 10% normal goat serum and 4% bovine serum albumin prepared in PBS for 3 hours, and then incubated with 1:50 rat antimouse monoclonal CD31 antibody overnight at 4° C. The sections were incubated with corresponding biotinylated secondary antibody for 1 hour, followed by incubation with Vectastain ABC Elite reagents.
# [2] = tested on: HIF-1α; assay: HIF-1α protein stability with cycloheximide in OV2008 cells; type: cell-based, human; settings: insulin 200 nM, CHX 20 μg/ml, L-4F 10 μg/ml
# Procedure: FIGS. 11A-11B. Effect of L-4F on HIF-1α protein stability in OV2008 cells. FIG. 11A, left, pretreatment of L-4F promotes HIF-1α degradation in OV2008 cells. After an overnight starvation, OV2008 cells were treated with insulin (200 nM) for 3 h, L-4F (10 μg/ml) for 1 h, and CHX (20 μg/ml) for various durations. Cell lysates were collected and subjected to Western blot analysis. […] Right, L-4F treatment promotes HIF-1α degradation in OV2008 cells. After an overnight starvation, OV2008 cells were treated with insulin (200 nM) for 3 h and then treated with L-4F (10 μg/ml) and CHX (20 μg/ml) at the same time. Cell lysates were collected at various time points and subjected to Western blot analysis. […] FIG. 11B, effect of pretreatment of L-4F on proteasome-mediated degradation of HIF-1α in insulin-treated OV2008 cells. After an overnight starvation, OV2008 cells were treated with MG-132 (10 μM) for 3 h, L-4F (10 μg/ml) for 1 h, and insulin (200 nM) for an additional 4 h. Cell lysates were collected and subjected to Western blot analysis.
# Western blot analyses were performed as described previously (Gao et al., 2011). […]
# [3] = tested on: Akt; assay: Insulin-stimulated phosphorylation of Akt in OV2008 cells, Western blot; type: cell-based, human; settings: 10 μg/ml, insulin 200 nM
# Procedure: (§1) FIGS. 10A-10B. Effect of L-4F on the insulin-stimulated activation of downstream signaling molecules in OV2008 cells. After an overnight starvation, OV2008 cells were treated with L-4F (10 μg/ml) for 1 h, and insulin was added at a final concentration of 200 nM. Cell lysates were collected at various time points and subjected to Western blot analysis. FIG. 10A, L-4F inhibits insulin-stimulated phosphorylation of p70s6 kinase and subsequent HIF-1α expression in OV2008 cells. FIG. 10B, effect of L-4F on insulinstimulated phosphorylation of ERK1/2 and Akt in OV2008 cells.
# (§2) Western blot analyses were performed as described previously (Gao et al., 2011). In brief, cell lysates were collected in a lysis buffer containing 0.1 MNaCl, 5 mM EDTA, 50 μM sodium orthovanadate, 1% Triton X-100, and protease inhibitor tablet (Roche Diagnostics, Indianapolis, Ind.) in 50 mM Tris buffer, pH 7.5, loaded onto 4 to 12% Bis-Tris gel (Invitrogen), transferred to polyvinylidene difluoride membrane, and incubated with the appropriate antibodies. […]
# [4] = tested on: CT26 cells; assay: LPA-induced viability of CT26 cells; type: cell-based, mouse; settings: L-4F 10 mg/mL with LPA 5, 10, 48 hours
# Procedure: (§3) FIGS. 17A-17B. HDL mimetic, L-4F inhibits LPA induced viability of CT26 cells and reduces LPA levels in cell culture medium. FIG. 17A, CT26 cells were cultured as described in Example 5 and incubated with either L-4F at 10 mg/mL or LPA at a concentration 5, 10, […], or cells were treated with both L-4F and LPA for 48 hours. All experiments were conducted in triplicate and each assay was carried out in quadruplicates. Data are represented as the mean±SD of the percent of control cells. FIG. 17B, LPA levels were measured in the cell culture medium after 48 hours of treatment.
# (§4) The peptides were dissolved in H2O.
# [5] = tested on: CT26 cells; assay: CT26 cell viability, MTS assay; settings: Example 6; MTS assay, within 48 hours of treatment
# Procedure: CT26 cell line derived from N-nitroso-N-methyl urethane-induced mouse colon carcinoma of BALB/c origin was purchased from the American Type Culture Collection (ATCC). CT26 cells (2,000 cells per well) were first cultured in complete medium in 96-well culture plates, and 24 hours later the medium was replaced with serum free medium. Following an overnight incubation, the cells were either treated with vehicle (control), or treated with 10 μg/mL of either bHDL. The bHDL were dissolved in H2O. Cells were incubated for an additional 48 hours and assayed for viability using the MTS assays kit (Promega) according to the manufacturer's protocol.
# CT26 cell line derived from N-nitroso-N-methyl urethane-induced mouse colon carcinoma of BALB/c origin was purchased from the American Type Culture Collection. CT26 cells (2,000 cells per well) were first cultured in complete medium in 96-well culture plates, and 24 hours later the medium was replaced with serum-free medium. Following an overnight incubation, the cells were either treated with vehicle (control) or treated with 10 mg/mL of either L-4F or G* peptide. The peptides were dissolved in H2O. Cells were incubated for an additional 48 hours and assayed for viability using the MTS assay kit (Promega) according to the manufacturer's protocol.
# [6] = tested on: LPA; assay: LPA levels in CT26 cell culture medium; type: cell-based, mouse; settings: CT26 cells; 48 hours; vs control medium
# Procedure: as §3
# LPA (20:4) was purchased from Avanti Polar Lipids. LPA levels were determined as described previously (19).
# LPA has been identified as an important mediator of tumor development, progression, and metastases in humans (26, 27). We have previously shown that apoAI mimetic peptides inhibit LPA-induced viability of ID8 cells and reduce serum LPA levels in mice injected with ID8 cells (17). […] LPA 20:4 and 18:1 were not detectable in cell culture medium (FIG. 17B).
# [7] = tested on: p70s6 kinase; assay: Insulin-stimulated phosphorylation of S6 kinase in OV2008 cells, Western blot; type: cell-based, human; settings: 10 μg/ml, insulin 200 nM
# Procedure: as §1, §2
# [8] = tested on: CT26 cells; assay: Tumor-load study: CT26 flank tumors in BALB/c mice; type: in vivo, mouse
# Procedure: 6-week-old BALB/c female mice were given a 100 μL subcutaneous injection of 1×10^6 CT26 cells prepared as a single cell suspension in PBS, and the mice were treated with bHDLor BHDLat 10 mg/kg administered subcutaneously (SQ) daily for 15 days. The mice were sacrificed and tumor weights were measured.
# 6-week-old BALB/c female mice were given a 100 μl subcutaneous injection of 1×10^6 CT26 cells prepared as a single cell suspension in PBS, treated with peptide at 10 mg/kg by SQ daily for 15 days.
# The mice were killed and tumor weights were measured. The tumor volumes were measured using the formula V=½ (L×W^2).
# Six-week-old BALB/c female mice were given a […] subcutaneous injection of 1×10^6 CT26 cells prepared as a single cell suspension in PBS, and the mice were treated with sc-4F or L-4F at 10 mg/kg administered subcutaneously daily for 15 days. The mice were sacrificed and tumor weights were measured.
# [9] = tested on: CT26 cells; assay: CT26 proliferation assay (BrdU incorporation); type: cell-based, mouse; settings: Example 5; 10 mg/mL, 48 hours
# Procedure: The bHDL were dissolved in H2O.
# as §4
# [10] = tested on: NIH3T3 cells; assay: NIH3T3 cell viability, MTS assay; type: cell-based; settings: 10 μg/mL, 48 hours
# Procedure: CT26 and NIH3T3 cells (2,000 cells per well) were first cultured in complete medium in 96-well culture plates, and 24 hours later the medium was replaced with serum-free medium. […] Cells were incubated for an additional 48 hours and assayed for viability using MTS assays kit (Promega) according to the manufacturer's protocol.
# [11] = Example 3, 10 mg/kg subcutaneous daily for 15 days
substance,measurement,setting,value
"Ac-DWFKAFYDKVAEKFKEAF-NH2 [L-4F, Ac-D-W-F-K-A-F-Y-D-K-V-A-E-K-F-K-E-A-F-NH2]",CD31 expression in tumors,[1],significant decrease
same,degradation of HIF-1α protein,[2],accelerated the degradation
same,insulin-stimulated phosphorylation of Akt,[3],"no effect on the phosphorylation of Akt, except at 0.5 h"
same,LPA-induced viability,[4],significantly reduced
same,CT26 cell viability vs vehicle-treated controls,[5],reduced cell viability
same,LPA 16:0 and 18:0 levels in cell culture medium,[6],significantly decreased
same,insulin-stimulated phosphorylation of S6 kinase,[7],prevented phosphorylation
same,flank tumor volume,[8]; [11],313 mm^3
same,flank tumor weight,[8]; [11],179 mg
same,flank tumor weights,"[8]; Example 5, 10 mg/kg subcutaneously daily for 15 days",389 mg
same,"proliferation of CT26 cells, BrdUrd incorporation",[9],significantly inhibited
same,NIH3T3 cell viability,[10],not affected
